Laboratory results from US6965113B2, “Fluorescence intensity multiple distributions analysis: concurrent determination of diffusion times and molecular brightness” (Evotec AG, priority 2000, dated 2005).
Where two headings read alike, the source gives them in different places. Square brackets hold non-standard residues; d marks the D form. Peptide text beside a SMILES is read from it. * marks the point of attachment. X1 = CC[N+]1=C(C=CC=CC=C2N(CCCCCC(=O)*)c3ccc(S(=O)(=O)O)cc3C2(C)C)C(C)(C)c2cc(S(=O)(=O)[O-])ccc21; pY = N[C@@H](Cc1ccc(OP(=O)(O)O)cc1)C(=O)O

Key:
SH2 domain of Grb2 = molecular target: T1, SH2 domain of Grb2 (Homo sapiens, UniProt P62993); assay: Experiment 1: titration of SH2 against constant 0.4 nM pTyr-Val-Asn-Val-Lys(Cy5), confocal fluorescence fluctuation measurement (FIMDA, FCS, FIDA), hyperbolic fit of fraction bound; details: 0.4 nM conjugate, same buffer, T=20° C., read-out: binding constant KD for the SH2-phosphopeptide interaction
T1 construct: as a model system, the bare SH2 domain (14.3 kDa) has been chosen; made in house
T1 sequence (P62993 60-152 limits assumed): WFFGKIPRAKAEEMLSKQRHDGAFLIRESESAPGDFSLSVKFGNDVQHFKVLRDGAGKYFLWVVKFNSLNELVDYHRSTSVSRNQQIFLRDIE
Excerpt: The central optical part of the present FIMDA experiment is a confocal microscope as it is used in fluorescence correlation spectroscopy (Koppel et al., Biophys. J. 16: 1315-1329, 1976: Rigler et al., Eur. Biophys. J. 22: 169-175, 1993). For the excitation of fluorescence, a beam from a continuous wave laser is attenuated to ˜800 μW by neutral density filters, passes a beam expander, and is directed to the microscope objective (UApo/340, 40x, N.A. 1.15, Olympus Optical Co. Ltd., Tokyo, Japan) by a dichroic mirror. Fluorescence is collected by the said objective through the dichroic mirror, a spectral band-pass filter, and is focused to a confocal pinhole, which serves to reject the out-of-focus light. The light, which passes the pinhole, is detected by a silicon photon counting module (SPCM-AQ-131, EG&G Optoelectronics, Vaudreuil, Canada). […]
A series of simultaneously measured or simulated distributions is globally fitted using a Marquardt algorithm. […] Theoretical distributions are calculated using exactly the same algorithm as in FIDA, except that each species has an individual apparent concentration and an apparent brightness at each time window, calculated according to Eqs. […]

[1] = molecular target: T2, SH2-domain of the adapter protein Grb2 (Homo sapiens, UniProt P62993); assay: Experiment 2: titration of SH2 against constant 0.8 nM pTyr-Val-Asn-Val-Lys(Cy5), FCS, FIDA and FIMDA data collected simultaneously; assay type: binding; details: 0.8 nM conjugate, T=20° C.
T2 construct: as a model system, the bare SH2 domain (14.3 kDa) has been chosen; made in house
T2 sequence (P62993 60-152 limits assumed): as above
Description: Since the diffusion time of the dye is […] (compared to 40 μs) it spends only a short time in the confocal volume and its apparent brightness decreases. From this information the diffusion time can be calculated from a global fit.
The viability of the present invention was tested by measurements characterizing a ligand-protein interaction. The minimal peptide sequence pTyr-Val-Asn (originating from tyrosine kinase growth factor receptors) binds to the SH2-domain of the adapter protein Grb2. The conjugate pTyr-Val-Asn-Val-Lys(Cy5) was synthesized as binding partner for SH2. All measurements were performed under identical conditions (e.g. same buffer: sterile filter water, 50 mM Na-phosphate buffer pH 7.8, 50 mM NaCl and 0.05% Pluronic; T=20° C.). To obtain the KD value for the ligand protein interaction a titration experiment was carried out. The pTyr-Val-Asn-Val-Lys(Cy5) concentration was kept constant at 0.8 nM, while SH2 was subject to titration (0.01, 0.03, 0.1, 0.3, 1, 3, 10, 30, 100, and 130 μM). Each sample was measured 30 times keeping the acquisition time at 30 seconds per measurement. FCS (prior art), FIDA (prior art) and FIMDA (present invention) data were collected simultaneously in order to compare all three methods. It becomes clear that FIMDA is able to resolve both, the specific brightness and the diffusion time of both species (ligand and complex). Therefore, FIMDA is a more versatile tool than FCS or FIDA and will save assay development time. Comparing the standard deviations of all methods in determining brightness and diffusion time FIMDA is better or at least as good as FCS or FIDA.

`CC[N+]1=C(C=CC=CC=C2N(CCCCCC(=O)NCCCC[C@H](NC(=O)[C@@H](NC(=O)[C@H](CC(N)=O)NC(=O)[C@@H](NC(=O)[C@@H](N)Cc3ccc(OP(=O)(O)O)cc3)C(C)C)C(C)C)C(=O)O)c3ccc(S(=O)(=O)O)cc3C2(C)C)C(C)(C)c2cc(S(=O)(=O)[O-])ccc21` [pTyr-Val-Asn-Val-Lys(Cy5)] (H-[pY]VNVK(X1)-OH; N-terminus and C-terminus assumed) gave a Kd (SH2 domain of Grb2; FCS) of 2160 ± 190 nM, a Kd (SH2 domain of Grb2; FIDA) of 1600 ± 190 nM and a Kd ([1]; FCS, same buffer) of 2260 ± 280 nM. The Kd ([1]; FIDA, same buffer) was 1700 ± 290 nM and the Kd ([1]; FIMDA, 50 mM Na-phosphate buffer pH 7.8, 50 mM NaCl, 0.05% Pluronic) was 1680 ± 270 nM.
